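Tested at 5 concentrations; 48 h exposure; 96-well plates; endpoints linearly interpolated, else capped at highest concentration. At the GI50, growth is halved. The concentration for full growth arrest is given as TGI.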
Columns and labels:
Assay in all cases: NCI anticancer screen, dose series, 48 h
[1] = system: HCT-116 colon
[2] = system: IGROV1 ovarian
[3] = system: OVCAR-4 ovarian
[4] = system: SF-539 CNS
[5] = system: CAKI-1 renal
[6] = system: SK-MEL-28 melanoma
[7] = system: SK-MEL-2 melanoma
[8] = system: HS 578T breast
[9] = system: NCI-H522 lung
[10] = system: SF-268 CNS
[11] = system: A498 renal
[12] = system: ACHN renal
[13] = system: DU-145 prostate
[14] = system: U251 CNS
[15] = system: LOX IMVI melanoma
[16] = system: MCF7 breast
[17] = system: COLO 205 colon
[18] = system: NCI-H460 lung
[19] = system: TK-10 renal
[20] = system: HT29 colon
[21] = system: PC-3 prostate
[22] = system: OVCAR-8 ovarian
[23] = system: M14 melanoma
[24] = system: KM12 colon
[25] = system: UO-31 renal
[26] = system: HOP-62 NSCLC
[27] = system: MALME-3M melanoma
[28] = system: HCC-2998 colon
[29] = system: HL-60(TB) leukemia
[30] = system: K-562 leukemia
[31] = system: RPMI-8226 leukemia
[32] = system: NCI/ADR-RES ovarian
[33] = system: SN12C renal
[34] = system: SK-MEL-5 melanoma
[35] = system: 786-0 renal
[36] = system: HCT-15 colon
[37] = system: CCRF-CEM leukemia
[38] = system: UACC-62 melanoma
[39] = system: OVCAR-5 ovarian
[40] = system: MDA-MB-231 breast
[41] = system: MOLT-4 leukemia
[42] = system: SR leukemia
[43] = system: T-47D breast
[44] = system: OVCAR-3 ovarian
[45] = system: NCI-H226 lung
[46] = system: EKVX NSCLC
[47] = system: A549 NSCLC
[48] = system: UACC-257 melanoma
[49] = system: MDA-MB-435
[50] = system: NCI-H23 lung
[51] = system: SW-620 colon
[52] = system: SF-295 CNS
[53] = system: SK-OV-3 ovarian
[54] = system: BT-549 breast
[55] = system: SNB-75 CNS
[56] = system: SNB-19 CNS

Compound `COc1cc(NC(=O)c2ccc(C(F)(F)F)nc2Nc2ccc(Cl)cc2C)cc(OC)c1OC` has a GI50 [1] of 3.14 µM, a TGI [1] of 13.4 µM and a GI50 [2] of 0.958 µM. The TGI [2] was 23 µM, the GI50 [3] was 2.77 µM and the TGI [3] was 25.3 µM. The GI50 [4] was 10.6 µM, the TGI [4] was greater than 100 µM and the GI50 [5] was 3.36 µM. It also gave a TGI [5] of 9.85 µM, a GI50 [6] of 4.4 µM and a TGI [6] of 26.4 µM. It also gave a GI50 [7] of 10.3 µM, a TGI [7] of 28.3 µM and a GI50 [8] of 4.65 µM. The TGI [8] was 38.7 µM, the GI50 [9] was 1.61 µM and the TGI [9] was 14.4 µM. The GI50 [10] was 6.67 µM, the TGI [10] was 28.9 µM and the GI50 [11] was 3.9 µM. The TGI [11] was 23.8 µM, the GI50 [12] was 3.74 µM and the TGI [12] was 35.5 µM. The GI50 [13] was 11.7 µM, the TGI [13] was 57.3 µM and the GI50 [14] was 4.86 µM. It also gave a TGI [14] of 17.5 µM, a GI50 [15] of 3.23 µM and a TGI [15] of 13.5 µM. For the same compound, the GI50 [16] was 2.39 µM, the TGI [16] was 16.2 µM and the GI50 [17] was 4.06 µM. It also gave a TGI [17] of 15.5 µM, a GI50 [18] of 3.3 µM and a TGI [18] of 12.9 µM. For the same compound, the GI50 [19] was 5.83 µM, the TGI [19] was 29.1 µM and the GI50 [20] was 4.92 µM. For the same compound, the TGI [20] was 19.3 µM, the GI50 [21] was 1.86 µM and the TGI [21] was 10.5 µM. The GI50 [22] was 6.19 µM, the TGI [22] was greater than 100 µM and the GI50 [23] was 4.14 µM. For the same compound, the TGI [23] was 18.9 µM, the GI50 [24] was 1.55 µM and the TGI [24] was 13.2 µM. For the same compound, the GI50 [25] was 2.68 µM, the TGI [25] was 17.9 µM and the GI50 [26] was 5.95 µM. For the same compound, the TGI [26] was 18.2 µM, the GI50 [27] was 4.94 µM and the TGI [27] was 24 µM. For the same compound, the GI50 [28] was 1.89 µM, the TGI [28] was 5.61 µM and the GI50 [29] was 1.76 µM. It also gave a TGI [29] of 15.2 µM, a GI50 [30] of 3.01 µM and a TGI [30] greater than 100 µM. It also gave a GI50 [31] of 2.96 µM, a TGI [31] of 17.5 µM and a GI50 [32] of 3.62 µM. It also gave a TGI [32] of 17.1 µM, a GI50 [33] of 6.75 µM and a TGI [33] of 31 µM. It also gave a GI50 [34] of 2.95 µM, a TGI [34] of 14.9 µM and a GI50 [35] of 5.56 µM. It also gave a TGI [35] of 22.4 µM, a GI50 [36] of 4.35 µM and a TGI [36] of 21.2 µM. It also gave a GI50 [37] of 1.58 µM, a TGI [37] of 29.5 µM and a GI50 [38] of 3.05 µM. For the same compound, the TGI [38] was 15.9 µM, the GI50 [39] was 10.8 µM and the TGI [39] was 27.7 µM. The GI50 [40] was 3.73 µM, the TGI [40] was 14.8 µM and the GI50 [41] was 2.54 µM. The TGI [41] was 18.2 µM, the GI50 [42] was 2.77 µM and the TGI [42] was 13.5 µM. It also gave a GI50 [43] of 2.47 µM, a TGI [43] of 21.3 µM and a GI50 [44] of 2.41 µM. For the same compound, the TGI [44] was 13.3 µM, the GI50 [45] was 10.8 µM and the TGI [45] was 31.7 µM. For the same compound, the GI50 [46] was 6.34 µM, the TGI [46] was greater than 100 µM and the GI50 [47] was 5.82 µM. The TGI [47] was greater than 100 µM, the GI50 [48] was 3.4 µM and the TGI [48] was 19.3 µM. For the same compound, the GI50 [49] was 4.19 µM, the TGI [49] was 21.3 µM and the GI50 [50] was 2.2 µM. The TGI [50] was 10.6 µM, the GI50 [51] was 5.92 µM and the TGI [51] was 18.8 µM. For the same compound, the GI50 [52] was 5.36 µM, the TGI [52] was 23.1 µM and the GI50 [53] was 5.15 µM. For the same compound, the TGI [53] was 36.1 µM, the GI50 [54] was 10.7 µM and the TGI [54] was 26.6 µM. For the same compound, the GI50 [55] was 2.78 µM, the TGI [55] was 18.5 µM and the GI50 [56] was 5.77 µM. The TGI [56] was 48.9 µM.

From PubChem BioAssay (NCI)
